Test results from PubChem BioAssay (NCI).
Values joined by “and” are separate entries in the source; they are usually repeats but may differ in a detail not shown here. Equal values may be shown once.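 Grown in 96-well plates, cells were treated for 48 hours with each compound at five concentrations. Insufficient inhibition: endpoint recorded as highest concentration tested. Abbreviation: GI50, concentration required for 50% inhibition of growth. TGI: concentration producing complete growth inhibition.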

What was measured:
Assay in all cases: DTP human tumour cell line panel, 48 h
[1] = tested on: SF-539 CNS
[2] = tested on: LOX IMVI melanoma
[3] = tested on: SW-620 colon
[4] = tested on: MDA-MB-231 breast
[5] = tested on: A498 renal
[6] = tested on: U251 CNS
[7] = tested on: SF-295 CNS
[8] = tested on: OVCAR-3 ovarian
[9] = tested on: PC-3 prostate
[10] = tested on: SK-MEL-2 melanoma

SMILES | GI50 [1] [µM] | TGI [1] | GI50 [2] [µM] | TGI [2] | GI50 [3] [µM] | TGI [3] | GI50 [4] [µM] | TGI [4] | GI50 [5] [µM] | TGI [5] | GI50 [6] [µM] | TGI [6] | GI50 [7] [µM] | TGI [7] [µM] | GI50 [8] [µM] | TGI [8] [µM] | GI50 [9] [µM] | TGI [9] | GI50 [10] [µM] | TGI [10]
COC(=O)C1=CN(CC2=CC(=O)C(C)=CC2=O)C=C(C(=O)OC)C1c1cccc(OC)c1 | 8.25 | 23.3 µM | 17.6 | 42.7 µM | 2.2 | 4.81 µM | 13.4 | 31.2 µM | 18.6 | 34.6 µM | 8.47 | 30.5 µM | 10.3 | 26.4 | 3.51 | 12.3 | 8 | 29.9 µM | 24.3 | > 100 µM
Cc1ccc2c(C3C(C#N)=C(N)Oc4cc5ccccc5cc43)cc(=O)oc2c1 (stereo not drawn) | 0.873 | 7.6 µM | 3.17 | > 100 µM | 0.736 | > 100 µM | 8.2 | > 100 µM | 4.23 | 86.3 µM | 2.28 | > 100 µM | 0.533 | > 100 | 0.375 | 10.7 | 1.25 | > 100 µM | 11.7 | > 100 µM
C=COC(=O)N[C@H]1CCc2cc(OC)c(OC)c(OC)c2-c2ccc(SC)c(=O)cc21 |  | < 0.0464 µM |  | > 95.8 µM |  | > 100 µM |  | 1.88 µM |  | 0.395 µM |  | 3.02 µM |  | 0.0769 |  | 0.0311 |  | > 100 µM |  | 1.73 µM
O=C(O)c1ccc(C(=O)O)c2c(C(=O)O)ccc(C(=O)O)c12 |  | > 100 µM |  | > 100 µM |  | > 100 µM |  | > 100 µM |  | > 100 µM |  | > 100 µM |  | > 100 |  | > 100 |  | > 100 µM |  | > 100 µM
Nc1c(C(=O)c2ccccc2)cnn1-c1ccc(F)cc1 | > 25 | > 25 µM | > 25 | > 25 µM | > 25 | > 25 µM | > 25 | > 25 µM | > 25 | > 25 µM | > 25 | > 25 µM | > 25 | > 25 | > 25 | > 25 | > 25 | > 25 µM | > 25 | > 25 µM
C/C(=N\NC(=S)N1CCCCCC1)c1ccccn1 | 0.143 | 1.74 µM and 2.26 µM |  | 4.37 µM and 1.37 µM | < 0.0204 | 1.85 µM and 4.74 µM | 0.147 | 5.31 µM and 9.96 µM | 0.163 | 2.59 µM and 1.57 µM | < 0.0131 | 1.24 µM and 1.29 µM | 0.0137 | 2.3 |  | 0.172 | 0.183 | 2.9 µM and 2.61 µM | 0.0694 | 0.569 µM and 1.83 µM
Cn1c(=O)c(Oc2ccc(F)cc2)cc2cnc(NC3CCOCC3)nc21 | > 25 | > 25 µM | > 25 | > 25 µM | > 25 | > 25 µM | > 25 | > 25 µM | 13.4 | > 25 µM | > 25 | > 25 µM | > 25 | > 25 | > 25 | > 25 | > 25 | > 25 µM | > 25 | > 25 µM
CC(C)OC(=O)[C@H](C)NP(=O)(OC[C@H]1O[C@@H](n2ccc(=O)[nH]c2=O)[C@](C)(F)[C@@H]1O)Oc1ccccc1 (stereo partly drawn) | > 100 | > 100 µM | > 100 | > 100 µM | > 100 | > 100 µM | > 100 | > 100 µM | > 100 | > 100 µM | > 100 | > 100 µM | > 100 | > 100 | > 100 | > 100 | > 100 | > 100 µM | > 100 | > 100 µM
O=C(Nc1cc(C(F)(F)F)ccc1Cl)c1cccc(NC2=C(Cl)C(=O)N(Cc3ccccc3)C2=O)c1 | 26.4 | 53.7 µM | 5.65 | > 100 µM | 52.7 | > 100 µM | 32.7 | > 100 µM | 28.5 | 92.9 µM | 11.1 | > 100 µM | 29.1 | > 100 | 34.3 | > 100 | 14.1 | > 100 µM | 30.8 | > 100 µM
COc1ccccc1Nc1ncc(-c2ccccc2)o1 | > 25 | > 25 µM | > 25 | > 25 µM | > 25 | > 25 µM | > 25 | > 25 µM | > 25 | > 25 µM | > 25 | > 25 µM | > 25 | > 25 | > 25 | > 25 | > 25 | > 25 µM | > 25 | > 25 µM
CC12CCC3c4ccc(O)cc4CCC3C1C/C(=N\O)C2O (stereo not drawn) |  | > 100 µM |  | > 100 µM |  | > 100 µM |  | > 100 µM |  | > 100 µM |  | > 100 µM |  | > 100 |  | > 100 |  | > 100 µM |  | > 100 µM
CN(C)C(=S)Sc1ccc([N+](=O)[O-])cc1[N+](=O)[O-] | 3.8 | 14.6 µM | 1.53 | 3.63 µM | 1.1 | 2.79 µM | 3.04 | 11.9 µM | 9.47 | 22 µM | 1.58 | 8.97 µM | 14.5 | 29 | 0.99 | 2.49 | 2.17 | 13.3 µM | 4.21 | 9.86 µM
